One series relates to unstimulated PBMCs. The experiment in a line: Time course of lentiviral transduction of unstimulated PBMCs, 4 hours to less than 1 minute. The class given is cell-based, human. As to conditions: 10 μM during 4 hour transduction, replenished in recovery medium.
In series [1] the test system is transduced human PBMCs expressing a CAR in CHO, CHO-ROR2 or CHO-AXL tumors. The experiment in a line: miRNA library in vivo screen: miRNA blocks recovered from tumors 20 days after dosing transduced PBMCs. Set-up: species or system mouse. As to conditions: conclusion from miRNA constructs recovered from tumors at day 20. The source says: 108 gBlocks® Gene Fragments were used to generate a library of constructs each containing 4 miRNA precursors in series in positions 1 (P1), 2 (P2), 3 (P3), and 4 (P4). Each gBlock® was specific to P1, P2, P3, or P4 and contained a miR-155 framework (SEQ ID NO:457), including a 5′arm and a 3′arm as described in Example 17 of WO 2019/055946, in which a unique miRNA fragment targeting an mRNA transcript corresponding to 1 of 27 different genes was used to replace the miR-155 stem-loop precursor. For clarity, the sequences of miRNA fragments differed for each position P1-P4 even among miRNA fragments that targeted mRNA transcripts corresponding to the same gene. The gBlocks® for each position contained a unique 40 bp overlap sequence and the type IIs assembly method was used to assemble combinations of four gBlocks® in their prescribed order, to generate the library. By these methods, a total diversity of 531,441 unique constructs (27 miRNA at P1×27 miRNA at P2×27 miRNA at P3×27 miRNA at P4) was possible.
The library of miRNA constructs was separately cloned into the EF-1 alpha intron A of F1-1-315 and F1-2-314 to generate Library 315 and Library 314, respectively. In addition to the EF-1 alpha promoter, F1-1-315 included a CD8a signal peptide, an anti-ROR2:CD28:CD3z CAR, T2A, and an eTag. […]

Regarding `Cc1cc(C)c(Nc2ccnc(Nc3ccc(C#N)cc3)n2)c(C)c1` [dapivirine], the inhibition of transduction result in the series on unstimulated PBMCs is given as “inhibition of transduction”. For the molecule `C[C@@H]1CCO[C@H]2Cn3cc(C(=O)NCc4ccc(F)cc4F)c(=O)c(O)c3C(=O)N12` [dolutegravir], the inhibition of transduction entry in the series with unstimulated PBMCs is “inhibition of transduction”.

B1: SMAD4: miRNA in miR-155 framework directed against SMAD4, SEQ ID NOs:406-409 (nucleic acid)
DNA 1: CGGCACCTGCGCTGCCGTTGGATCGGGGATGAAAGCTGGCGCTGGAGGCTTGCTGAAGGCTGTATGCTGAATTAGGTGTGTATGGTGCAGGTTTTGGCCACTGACTGACCTGCACCACACACCTAATTCAGGACACAAGGCCTGTTACTAGCACTCACATGGAACAAATGGCCCACATTGGTGCCGGATGAAGCTCTTATGTTGCGTCCCATCGCAGGTGCCT
DNA 2: CCTCACCTGCTTGCGTCCCATTCTGGAGGCTTGCTGAAGGCTGTATGCTGAAGTACTTCGTCTAGGAGCTGGTTTTGGCCACTGACTGACCAGCTCCTACGAAGTACTTCAGGACACAAGGCCTGTTACTAGCACTCACATGGAACAAATGGCCGTTGCCTGAGTCTTGGCAGCGAGAGATCACTAACTGCTAAGCAGGTGCTT
DNA 3: TGTCACCTGCACTAACTGCTAACTGGAGGCTTGCTGAAGGCTGTATGCTGTATCCCACGATCTACTCCCCGGTTTTGGCCACTGACTGACCGGGGAGTATCGTGGGATACAGGACACAAGGCCTGTTACTAGCACTCACATGGAACAAATGGCCGTGTTAATTGTCCATGTAGCGAGGCATCCTTATGGCGTGGGCAGGTGTCC
DNA 4: CCTTCACCTGCCTTATGGCGTGGCTGGAGGCTTGCTGAAGGCTGTATGCTGTTATGATGGTAAGTAGCTGGCGTTTTGGCCACTGACTGACGCCAGCTATACCATCATAACAGGACACAAGGCCTGTTACTAGCACTCACATGGAACAAATGGCCGGTGTCCGTTATCGGGGAAGAAGGTCGCGCACATAGCAGGTGTCC
modifications: Synthetic SMAD4 miRNA at P1; Synthetic SMAD4 miRNA at P2; Synthetic SMAD4 miRNA at P3; Synthetic SMAD4 miRNA at P4
As to B1, in series [1], the “effect of knocking down the transcript on T cells in the tumor microenvironment” value was “promote the survival and/or proliferation of T cells”.
